Laboratory results: article PMC8217550, “ERRγ enhances cardiac maturation with T-tubule formation in human iPSC-derived cardiomyocytes” (Nature Communications, 2021)

Target: T1, estrogen-related receptor gamma (ERRγ) (Homo sapiens, UniProt P62508)
T1 construct: gene ESRRG; His-tagged ERRγ LBD
T1 sequence (P62508 233-458 limits assumed): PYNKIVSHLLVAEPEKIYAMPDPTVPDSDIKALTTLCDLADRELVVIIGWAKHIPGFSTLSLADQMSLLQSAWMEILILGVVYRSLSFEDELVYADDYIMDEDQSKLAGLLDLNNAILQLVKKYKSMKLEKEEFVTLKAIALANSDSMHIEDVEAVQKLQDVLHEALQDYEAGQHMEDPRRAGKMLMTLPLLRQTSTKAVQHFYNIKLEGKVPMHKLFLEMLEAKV
T1 sequence (Q9UBK2 1-798 partner): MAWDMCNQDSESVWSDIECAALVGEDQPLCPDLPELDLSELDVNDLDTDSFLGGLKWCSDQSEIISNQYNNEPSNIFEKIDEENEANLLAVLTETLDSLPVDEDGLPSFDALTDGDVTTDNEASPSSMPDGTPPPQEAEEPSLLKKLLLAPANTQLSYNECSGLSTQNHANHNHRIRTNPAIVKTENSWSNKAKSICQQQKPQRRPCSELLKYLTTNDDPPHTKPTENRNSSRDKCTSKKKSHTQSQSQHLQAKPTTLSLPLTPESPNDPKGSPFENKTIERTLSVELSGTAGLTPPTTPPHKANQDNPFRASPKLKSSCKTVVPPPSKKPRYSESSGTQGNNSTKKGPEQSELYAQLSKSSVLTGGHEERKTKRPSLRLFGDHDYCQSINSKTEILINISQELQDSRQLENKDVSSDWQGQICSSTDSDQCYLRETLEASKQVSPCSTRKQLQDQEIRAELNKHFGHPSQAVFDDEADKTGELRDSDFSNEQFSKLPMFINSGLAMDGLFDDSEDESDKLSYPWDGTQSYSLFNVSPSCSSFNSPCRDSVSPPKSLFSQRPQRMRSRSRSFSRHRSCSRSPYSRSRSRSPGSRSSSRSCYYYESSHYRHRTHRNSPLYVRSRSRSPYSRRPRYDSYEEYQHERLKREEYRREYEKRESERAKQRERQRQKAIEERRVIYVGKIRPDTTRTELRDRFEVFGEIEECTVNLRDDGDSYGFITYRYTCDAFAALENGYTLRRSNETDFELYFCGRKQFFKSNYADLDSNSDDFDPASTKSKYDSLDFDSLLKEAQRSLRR
Experiment: LanthaScreen TR-FRET PGC1a coactivator-binding assay (agonist)
Assay type: biochemical

SMILES: O=C1c2ccc(N3CCOCC3)cc2CN1c1ccc2[nH]c(-c3ccc(Br)cc3)nc2c1 [T112, 2-[2-(4-bromophenyl)-1H-benzimidazol-5-yl]-5-(morpholin-4-yl)-2,3-dihydro-1H-isoindol-1-one]
- LanthaScreen TR-FRET PGC1a coactivator-binding assay (agonist): to have ERRγ-agonistic activity with stronger effects than the commercially available ERRγ agonist GSK4716
